Data set [1] relates to SREBP-2 transcriptional activity (SREBP2 cleavage) in HepG2_LSSprom cells. Kind of data set: Luciferase reporter driven by a SREBP-2 specific promoter in HepG2_LSSprom cells. It counts as cell-based. Particulars: 24 h, read-out: SREBP2 Cleavage (IC50 μM) 24 h. The protocol: Dose response effects were measured of Compounds on the transcriptional activity of a Luciferase reporter driven by a SREBP-2 specific promoter in HepG2_LSSprom cells.
(§1) HepG2_LSSprom cells (SwitchGear Genomics, cat# C711010L) were cultured in DMEM with 10% of fetal bovine serum (FBS), supplemented with Puromycin (1 μg/mL), 1% Penicillin/Streptomycin (Pen-Strep), 37° C., humidified, 95% air and 5% CO2. Culture media was refreshed every 2 or 3 days. Cells were used between passage number 6-12.
For luminescence assays, cells were plated out at 20,000 cells/well in white 96 well plates in DMEM plus 10% FBS and 1% Pen-Strep without puromycin. After 1 day, cells were treated with Compound by diluting the drug in culture medium without FBS to a final concentration of 0.625, 1.25, 2.5, 3.75, 5 and 10 μM. Drug was prepared by dilutions of 10 mM stock aliquots. As control was used culture medium without FBS plus DMSO. Treatments with Compound were maintained for 6 h, or 24 h, until the luciferase assay was carried out.
After 6 h of treatments with Compound, the luciferase assay was performed. Briefly, the assay solution (buffer+substrate) was prepare just prior to use. To each well 100 μL of assay solution was added. The 96-well plate was then gently mix for 2 min and incubated for 30 min at RT protected from light. The luminescence was read using a Synergy 4 (Biotek) equipment recording luminescence with sensibility set up at 150.
(§2) Five independent experiments were carried out for both luciferase and cytotoxicity assay. In each experiment, three wells were use per condition and the results are represented as means±SEM.
For luciferase assay, Vehicle (no treatment) was taken as 100% of luciferase activity. This value represents the SREBP-2 transcriptional activity for the vehicle condition and was taken as 100% of SREBP-2 cleaved. The percentage for each treatment was calculated normalizing against the vehicle control. The graphics were made using the GraphPad Prism ver. 6.05 software. Half of maximal inhibitory concentration (IC50) of the effect of Compound on SREBP was obtain by nonlinear fit regression of mean normalized values vs. Compound concentration using the log(inhibitor) vs. response−Variable slope (four parameters) tool.
In general terms: A reporter such as luciferase makes a cellular process visible.

The nature of data set [2]: Cytotoxicity assay (LDH release) in HepG2_LSSprom cells. It counts as cell-based. Particulars: human, HepG2 LSSprom cells, 24 h treatment, LDH release. As for the experimental part: as §1
For cytotoxicity assays, cells were plated out at 20,000 cells/well in transparent 96 well plates in DMEM plus 10% FBS and 1% Pen-Strep without puromycin. After 1 day, cells were treated with Compound by diluting in culture medium without FBS to a final concentration of 0.625, 1.25, 2.5, 3.75, 5 and 10 μM. Compound was prepared by dilutions of 10 mM stock aliquots. As a negative control culture medium was used without FBS plus DMSO. As maximum LDH release control (Lysis control) a lysis buffer provided by the kit manufacturer was used. Treatments with Compound were maintained for 6 h, or 24 h, in cell culture medium without serum until the cytotoxicity assay was started.
The cytotoxicity assay was performed according to the manufacturer's instructions. As maximum LDH release control (Lysis control) 3 wells per plate were treated with 10 μL of lysis buffer 45 min before the treatment was over. Briefly, after the 6 h, or 24 h, of treatment, 50 μL of media from each well was transferred to a new 96-well plate. To the transferred media, 50 μL of reconstituted substrate mix was added. The plates were covered from light and incubated at RT for 10 min. Then, 50 μL of stop solution was added to each well. The plates were then read using a Synergy 4 (Biotek) equipment recording the absorbance at 490 nm.
as §2
For cytotoxicity assay, Lysis control was taken as 100%/o of LDH release. The vehicle values were taken as basal LDH release and were subtracted to all the treatments (including vehicle itself) having this value as 0% of LDH release. The LDH release for the treatments was calculated respect to the 100% of LDH release of Lysis control normalized against vehicle. All the negatives values were taken as 0% of cytotoxicity. The graphics were made using the Graph Prism ver. 6.05 software.

Setting [3] is: 24 h treatment, HepG2_LSSprom cells.

Like-named read-outs stand apart in the source and are kept apart here.

For orientation: IC50 means the concentration that gives 50% inhibition.

For the compound `CC(C)(C)c1cc(-c2cc(-c3ccc(C(=O)N4CCC(O)CC4)cc3Cl)cs2)ccn1` [Compound 57, 1-{4-[5-(2-tert-butylpyridin-4-yl)thiophen-3-yl]-3-chlorobenzoyl}piperidin-4-ol], the half-inhibitory concentration (IC50) in data set [1] (setting [3]) is 0.55 µM. Also, the IC50 at 24 h in data set [2] is above 10 µM.
For `CC(C)(C)c1cc(-c2cc(-c3ccc(C(=O)N4CCCC5(CCNC5=O)C4)cc3Cl)cs2)ccn1` (stereo not drawn) [Compound 83, 7-{4-[5-(2-tert-butylpyridin-4-yl)thiophen-3-yl]-3-chlorobenzoyl}-2,7-diazaspiro[4.5]decan-1-one] the same measures were 0.47 µM and above 10 µM.
For `CC(C)(C)c1cc(-c2cc(-c3ccc(C(=O)N4CCC[C@H](N)C4)cc3Cl)cs2)ccn1` [Compound 21b, (S)-(3-aminopiperidin-1-yl)(4-(5-(2-(tert-butyl)pyridin-4-yl)thiophen-3-yl)-3-chlorophenyl)methanone], the IC50 in data set [1] (setting [3]) is above 3 µM. The IC50 at 24 h in data set [2] was above 10 µM.
In the case of `CC(C)(C)c1cc(-c2cc(-c3ccc(C(=O)N4CCC4)cc3Cl)cs2)ccn1` [Compound 42, 4-{4-[4-(azetidine-1-carbonyl)-2-chlorophenyl]thiophen-2-yl}-2-tert-butylpyridine], the IC50 in data set [1] worked out at 0.84 µM. In addition, in data set [2], the IC50 at 24 h is above 10 µM.
On to `CCOC(=O)NC1CCN(C(=O)c2ccc(-c3csc(-c4ccnc(C(C)(C)C)c4)c3)c(Cl)c2)CC1` [Compound 63, ethyl N-(1-{4-[5-(2-tert-butylpyridin-4-yl)thiophen-3-yl]-3-chlorobenzoyl}piperidin-4-yl)carbamate], for which the concentration for half-maximal inhibition (IC50) in data set [1] (setting [3]) amounted to 2.1 µM. Further, in data set [2], the IC50 at 24 h is above 10 µM.
For `CC(C)(C)OC(=O)N[C@H]1CCCN(C(=O)c2ccc(-c3csc(-c4ccnc(C(C)(C)C)c4)c3)c(Cl)c2)C1` [Compound 19b, tert-butyl (S)-(1-(4-(5-(2-(tert-butyl)pyridin-4-yl)thiophen-3-yl)-3-chlorobenzoyl)piperidin-3-yl)carbamate] the same measures were 0.22 µM and above 10 µM.
For `CC(C)(C)OC(=O)N[C@@H]1CCCN(C(=O)c2ccc(-c3csc(-c4ccnc(C(C)(C)C)c4)c3)c(Cl)c2)C1` [Compound 19a, tert-butyl (R)-(1-(4-(5-(2-(tert-butyl)pyridin-4-yl)thiophen-3-yl)-3-chlorobenzoyl)piperidin-3-yl)carbamate] the same measures were 0.069 µM and above 10 µM.
As for `C[C@@H]1CN(C(=O)c2ccc(-c3csc(-c4ccnc(C(C)(C)C)c4)c3)c(Cl)c2)C[C@H](C)O1` [Compound 50, (2R,6S)-4-{4-[5-(2-tert-butylpyridin-4-yl)thiophen-3-yl]-3-chlorobenzoyl}-2,6-dimethylmorpholine], the half-inhibitory concentration (IC50) in data set [1] (setting [3]) worked out at 1.3 µM. Further, in data set [2], the 50% inhibitory concentration (IC50) at 24 h is above 10 µM.
For `CC(C)CCn1nccc1-c1cc(-c2ccc(C(=O)N3CCC(F)(F)CC3)cc2Cl)cs1` [Compound 103, [3-chloro-4-[5-(2-isopentylpyrazol-3-yl)-3-thienyl]phenyl]-(4,4-difluoro-1-piperidyl)methanone] the same measures were 0.69 µM and above 10 µM.
Take `CC(C)(C)c1cc(-c2cc(-c3ccc(C(=O)N4CCCC(O)C4)cc3Cl)cs2)ccn1` (stereo not drawn) [Compound 48, 1-{4-[5-(2-tert-butylpyridin-4-yl)thiophen-3-yl]-3-chlorobenzoyl}piperidin-3-ol]: the IC50 in data set [1] (setting [3]) is 0.26 µM. Further, the IC50 at 24 h in data set [2] was above 10 µM.
With `COC1CCCN(C(=O)c2ccc(-c3cc(-c4ccnc(C(C)(C)C)c4)cs3)c(Cl)c2)C1` (stereo not drawn) [Compound 99, 2-tert-butyl-4-{5-[2-chloro-4-(3-methoxypiperidine-1-carbonyl)phenyl]thiophen-3-yl}pyridine], in data set [1], the IC50 was 0.051 µM. Moreover, in data set [2], the concentration for half-maximal inhibition (IC50) at 24 h was above 10 µM.
For `CCN1CCN(C(=O)c2ccc(-c3csc(-c4ccnc(C(C)(C)C)c4)c3)c(Cl)c2)CC1=O` [Compound 39, 4-{4-[5-(2-tert-butylpyridin-4-yl)thiophen-3-yl]-3-chlorobenzoyl}-1-ethylpiperazin-2-one] the same measures were 6.2 µM and above 10 µM.
On to `CC(C)(C)c1cc(-c2csc(-c3ccc(C(=O)N4CC[C@H](N)C4)cc3Cl)c2)ccn1` [Compound 96b, (3S)-1-{4-[4-(2-tert-butylpyridin-4-yl)thiophen-2-yl]-3-chlorobenzoyl}pyrrolidin-3-amine], for which the half-maximal inhibitory concentration (IC50) in data set [1] (setting [3]) was 0.6 µM. For the same compound, the IC50 at 24 h in data set [2] is above 10 µM.
For `CC(C)(C)c1cc(-c2csc(-c3ccc(C(=O)N4CCC(C(=O)O)CC4)cc3Cl)c2)ccn1` [Compound 88, 1-{4-[4-(2-tert-butylpyridin-4-yl)thiophen-2-yl]-3-chlorobenzoyl}piperidine-4-carboxylic acid] the same measures were 2.8 µM and above 10 µM.
For `CC(C)(C)OC(=O)NC1CCN(C(=O)c2ccc(-c3csc(-c4ccnc(C(C)(C)C)c4)c3)c(Cl)c2)CC1` [Compound 37, tert-butyl N-(1-{4-[5-(2-tert-butylpyridin-4-yl)thiophen-3-yl]-3-chlorobenzoyl}piperidin-4-yl)carbamate] the same measures were 0.91 µM and above 10 µM.
For `CC(C)(C)OC(=O)N1CCC(NC(=O)c2ccc(-c3csc(-c4ccnc(C(C)(C)C)c4)c3)c(Cl)c2)CC1` [Compound 78, tert-butyl 4-{4-[5-(2-tert-butylpyridin-4-yl)thiophen-3-yl]-3-chlorobenzamido}piperidine-1-carboxylate] the same measures were 0.2 µM and above 10 µM.
Consider `CC(=O)NC1CCN(C(=O)c2ccc(-c3csc(-c4ccnc(C(C)(C)C)c4)c3)c(Cl)c2)CC1` [Compound 38, N-(1-{4-[5-(2-tert-butylpyridin-4-yl)thiophen-3-yl]-3-chlorobenzoyl}piperidin-4-yl) acetamide], for which the IC50 in data set [1] (setting [3]) stood at 2.1 µM. The IC50 at 24 h in data set [2] was above 10 µM.
For `Cc1sc(-c2ccc(C(=O)N3CCC[C@@H](NC(=O)OC(C)(C)C)C3)cc2Cl)cc1-c1ccnc(C(C)(C)C)c1` [Compound 79a, tert-butyl N-[(3R)-1-{4-[4-(2-tert-butylpyridin-4-yl)-5-methylthiophen-2-yl]-3-chlorobenzoyl}piperidin-3-yl]carbamate] the same measures were 0.29 µM and above 10 µM.
For `CC(C)(C)c1cc(-c2cc(-c3ccc(C(=O)Nc4ccc(F)cc4)cc3Cl)cs2)ccn1` [Compound 54, 4-[5-(2-tert-butylpyridin-4-yl)thiophen-3-yl]-3-chloro-N-(4-fluorophenyl) benzamide] the same measures were 0.54 µM and above 10 µM.
As to `CC(C)(C)c1cc(-c2cc(-c3ccc(C(=O)N4CCN5CCCC5C4)cc3Cl)cs2)ccn1` (stereo not drawn) [Compound 84, 2-tert-butyl-4-[4-(2-chloro-4-{octahydropyrrolo[1,2-a]piperazine-2-carbonyl}phenyl)thiophen-2-yl]pyridine], the half-maximal inhibitory concentration (IC50) in data set [1] (setting [3]) is above 3 µM. The IC50 at 24 h in data set [2] was above 10 µM.
As to `CC(C)(C)c1cc(-c2csc(-c3ccc(C(=O)N4CCC[C@@H](O)C4)cc3Cl)c2)ccn1` [Compound 89a, (R)-(4-(4-(2-(tert-butyl)pyridin-4-yl)thiophen-2-yl)-3-chlorophenyl)(3-hydroxypiperidin-1-yl)methanone], the IC50 in data set [1] (setting [3]) worked out at 0.03 µM. In addition, in data set [2], the IC50 at 24 h is above 10 µM.

These data come from patent publication US10189826B2, “Heterocyclic compounds and methods of use” (Medivation Technologies LLC, priority 2015, dated 2019).
